Assay results taken from ChEMBL document CHEMBL6092221, “Discovery of a Novel Macrocyclic Noncovalent CDK7 Inhibitor for Cancer Therapy” (J Med Chem, 2024).
≈ marks a conversion by molar mass, not a printed value.

Legend:
[1] = Oral bioavailability in female Balb/c nude mouse at 10 mg/kg; type: ADME, organism-based; conditions: in vivo
[2] = Cmax in female Balb/c nude mouse at 10 mg/kg, po; type: ADME, organism-based; conditions: in vivo
[3] = Volume of distribution at steady state in female Balb/c nude mouse at 1 mg/kg, iv; type: ADME, organism-based; conditions: in vivo, read-out: Vdss
[4] = AUC(0 to infinity) in female Balb/c nude mouse at 1 mg/kg, iv; type: ADME, organism-based; conditions: in vivo
[5] = Efflux ratio of permeability in human Caco-2 cells; type: ADME, cell-based
[6] = Permeability in human Caco-2 cells; type: ADME, cell-based; conditions: read-out: permeability
[7] = molecular target: Cyclin-dependent kinase 7/ cyclin H (Homo sapiens, UniProt P50613); assay: Binding affinity to CDK7/CyclinH (unknown origin) assessed as dissociation constant by SPR assay; type: protein-complex assay
HCC70 [8] = assay: cells; conditions: Homo sapiens, HCC70, 72 h
Description: Antiproliferative activity against human HCC70 cells assessed as inhibition of cell proliferation incubated for 72 hrs by celltiter-glo assay

[9] = AUC(0 to infinity) in female Balb/c nude mouse at 10 mg/kg, po; type: ADME, organism-based; conditions: in vivo
[10] = Metabolic stability in mouse liver microsomes assessed as intrinsic clearance; type: ADME, Microsome; conditions: read-out: CLH
[11] = Half life in female Balb/c nude mouse at 10 mg/kg, po; type: ADME, organism-based; conditions: in vivo
[12] = Clearance in female Balb/c nude mouse at 1 mg/kg, iv; type: ADME, organism-based; conditions: in vivo
[13] = Half life in rat at 1 mg/kg, iv; type: ADME, organism-based; conditions: in vivo
[14] = Oral bioavailability in rat at 5 mg/kg; type: ADME, organism-based; conditions: in vivo
hERG = hERG (Homo sapiens, UniProt Q12809); assay: Inhibition of hERG at 10 uM relative to control; type: toxicity
[15] = Drug concentration in rat small intestine at 5 mg/kg, po measured after 0.5 hrs; type: ADME, organism-based; conditions: read-out: Ct
[16] = Volume of distribution at steady state in mouse at 1 mg/kg, iv; type: ADME, organism-based; conditions: in vivo, iv, 1 mg/kg
[17] = Cmax in human OVCAR-3 cells xenografted in female Balb/c nude mouse plasma at 5 mg/kg, po administered once daily; type: ADME, organism-based
[18] = AUC(0 to t) in rat at 1 mg/kg, iv; type: ADME, organism-based; conditions: in vivo
[19] = AUC(0 to t) in mouse at 1 mg/kg, iv; type: ADME, organism-based; conditions: in vivo
[20] = AUC(0 to t) in dog at 2 mg/kg, po; type: ADME, organism-based, Canis lupus familiaris; conditions: in vivo
[21] = Oral bioavailability in mouse at 5 mg/kg; type: ADME, organism-based; conditions: in vivo
OVCAR-3 [22] = assay: Antitumor activity against human OVCAR-3 cells xenografted in female Balb/c nude mouse assessed as tumor growth inhibition at 2 mg/kg, po administered once daily and measured on day 22; type: functional; conditions: OVCAR-3, 528 h, time 22 day, read-out: TGI
[23] = Metabolic stability in rat liver microsomes assessed as intrinsic clearance; type: ADME, Microsome; conditions: read-out: CLH
[24] = Clearance in rat at 1 mg/kg, iv; type: ADME, organism-based; conditions: in vivo
[25] = Drug concentration in rat plasma at 5 mg/kg, po measured after 8 hrs; type: ADME, organism-based
[26] = Half life in mouse at 1 mg/kg, iv; type: ADME, organism-based; conditions: in vivo, iv, 1 mg/kg
[27] = Drug concentration in rat plasma at 5 mg/kg, po measured after 0.5 hrs; type: ADME, organism-based
[28] = AUC (0 to t) in dog at 1 mg/kg, iv; type: ADME, organism-based, Canis lupus familiaris; conditions: in vivo
[29] = Toxicity in female nu/nu mouse xenografted with human HCC70 cells assessed as body weight loss at 1 to 10 mg/kg, po administered once daily and measured for 4 weeks; type: organism-based; conditions: in vivo, 672 h, dose 1-10 mg/kg
[30] = Volume of distribution at steady state in dog at 1 mg/kg, iv; type: ADME, organism-based, Canis lupus familiaris; conditions: in vivo, read-out: Vdss
[31] = Metabolic stability in human liver microsomes assessed as intrinsic clearance; type: ADME, Microsome; conditions: read-out: CLH
[32] = Cmax in human HCC70 cells xenografted in female nu/nu mouse plasma at 1 mg/kg, po administered once daily; type: ADME, organism-based
[33] = Plasma protein binding in mouse assessed as unbound fraction; type: ADME, cell-free
[34] = AUC(0 to t) in human HCC70 cells xenografted in female nu/nu mouse plasma at 1 mg/kg, po administered once daily; type: ADME, organism-based
[35] = Drug concentration in rat plasma at 5 mg/kg, po measured after 2 hrs; type: ADME, organism-based
[36] = AUC(0 to t) in rat at 5 mg/kg, po; type: ADME, organism-based; conditions: in vivo
[37] = Half life in dog at 2 mg/kg, po; type: ADME, organism-based, Canis lupus familiaris; conditions: in vivo
[38] = Solubility of compound at pH 7.4; type: physicochemical; conditions: buffer
[39] = Cmax in dog at 2 mg/kg, po; type: ADME, organism-based, Canis lupus familiaris; conditions: in vivo
[40] = Cmax in mouse at 5 mg/kg, po; type: ADME, organism-based; conditions: in vivo
[41] = Plasma protein binding in rat assessed as unbound fraction; type: ADME, cell-free
[42] = Oral bioavailability in dog at 2 mg/kg; type: ADME, organism-based, Canis lupus familiaris; conditions: in vivo
[43] = AUC (0 to t) in human OVCAR-3 cells xenografted in female Balb/c nude mouse plasma at 5 mg/kg, po administered once daily; type: ADME, organism-based
[44] = Cmax in rat at 5 mg/kg, po; type: ADME, organism-based; conditions: in vivo
[45] = Clearance in dog at 1 mg/kg, iv; type: ADME, organism-based, Canis lupus familiaris; conditions: in vivo
[46] = Plasma protein binding in human assessed as unbound fraction; type: ADME, cell-free
[47] = AUC(0 to t) in mouse at 5 mg/kg, po; type: ADME, organism-based; conditions: in vivo
[48] = Half life in dog at 1 mg/kg, iv; type: ADME, organism-based, Canis lupus familiaris; conditions: in vivo
[49] = Drug concentration in rat small intestine at 5 mg/kg, po measured after 2 hrs; type: ADME, organism-based; conditions: read-out: Ct
[50] = Volume of distribution at steady state in rat at 1 mg/kg, iv; type: ADME, organism-based; conditions: in vivo, read-out: Vdss
[51] = Drug concentration in rat small intestine at 5 mg/kg, po measured after 8 hrs; type: ADME, organism-based; conditions: read-out: Ct
[52] = Half life in mouse at 5 mg/kg, po; type: ADME, organism-based; conditions: in vivo
HCC70 [53] = assay: Antitumor activity against human HCC70 cells xenografted in female nu/nu mouse assessed as tumor growth inhibition at 1 mg/kg, po administered once daily and measured for 4 weeks; type: functional; conditions: HCC70, 672 h, read-out: TGI
[54] = Cmax in female Balb/c nude mouse at 5 mg/kg, po; type: ADME, organism-based; conditions: in vivo
OVCAR-3 [55] = assay: cells; conditions: Homo sapiens, OVCAR-3, 72 h
Description: Antiproliferative activity against human OVCAR-3 cells assessed as inhibition of cell proliferation incubated for 72 hrs by celltiter-glo assay

[56] = Oral bioavailability in female Balb/c nude mouse at 5 mg/kg; type: ADME, organism-based; conditions: in vivo
[57] = Half life in female Balb/c nude mouse at 5 mg/kg, po; type: ADME, organism-based; conditions: in vivo
[58] = AUC(0 to t) in female Balb/c nude mouse at 5 mg/kg, po; type: ADME, organism-based; conditions: in vivo

Chain of Cyclin-dependent kinase 7/ cyclin H (P51946 whole entry): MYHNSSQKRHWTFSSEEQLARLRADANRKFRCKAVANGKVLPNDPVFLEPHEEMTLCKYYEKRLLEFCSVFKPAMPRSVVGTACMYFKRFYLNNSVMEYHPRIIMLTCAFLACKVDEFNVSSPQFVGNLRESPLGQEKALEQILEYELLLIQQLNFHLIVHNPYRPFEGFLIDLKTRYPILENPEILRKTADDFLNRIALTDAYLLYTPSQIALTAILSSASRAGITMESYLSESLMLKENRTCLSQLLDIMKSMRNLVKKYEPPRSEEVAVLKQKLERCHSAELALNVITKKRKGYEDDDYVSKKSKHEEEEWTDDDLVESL
Chain of Cyclin-dependent kinase 7/ cyclin H (P50613 whole entry): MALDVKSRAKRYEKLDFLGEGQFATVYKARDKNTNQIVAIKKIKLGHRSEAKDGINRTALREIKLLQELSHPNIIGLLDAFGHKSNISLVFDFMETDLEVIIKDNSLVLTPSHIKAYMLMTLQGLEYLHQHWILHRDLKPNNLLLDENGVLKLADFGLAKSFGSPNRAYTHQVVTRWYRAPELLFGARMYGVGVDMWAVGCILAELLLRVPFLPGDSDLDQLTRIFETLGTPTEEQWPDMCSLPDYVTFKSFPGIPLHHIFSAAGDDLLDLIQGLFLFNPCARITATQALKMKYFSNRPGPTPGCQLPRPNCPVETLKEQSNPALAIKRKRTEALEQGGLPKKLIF
Chain of hERG (Q12809 whole entry): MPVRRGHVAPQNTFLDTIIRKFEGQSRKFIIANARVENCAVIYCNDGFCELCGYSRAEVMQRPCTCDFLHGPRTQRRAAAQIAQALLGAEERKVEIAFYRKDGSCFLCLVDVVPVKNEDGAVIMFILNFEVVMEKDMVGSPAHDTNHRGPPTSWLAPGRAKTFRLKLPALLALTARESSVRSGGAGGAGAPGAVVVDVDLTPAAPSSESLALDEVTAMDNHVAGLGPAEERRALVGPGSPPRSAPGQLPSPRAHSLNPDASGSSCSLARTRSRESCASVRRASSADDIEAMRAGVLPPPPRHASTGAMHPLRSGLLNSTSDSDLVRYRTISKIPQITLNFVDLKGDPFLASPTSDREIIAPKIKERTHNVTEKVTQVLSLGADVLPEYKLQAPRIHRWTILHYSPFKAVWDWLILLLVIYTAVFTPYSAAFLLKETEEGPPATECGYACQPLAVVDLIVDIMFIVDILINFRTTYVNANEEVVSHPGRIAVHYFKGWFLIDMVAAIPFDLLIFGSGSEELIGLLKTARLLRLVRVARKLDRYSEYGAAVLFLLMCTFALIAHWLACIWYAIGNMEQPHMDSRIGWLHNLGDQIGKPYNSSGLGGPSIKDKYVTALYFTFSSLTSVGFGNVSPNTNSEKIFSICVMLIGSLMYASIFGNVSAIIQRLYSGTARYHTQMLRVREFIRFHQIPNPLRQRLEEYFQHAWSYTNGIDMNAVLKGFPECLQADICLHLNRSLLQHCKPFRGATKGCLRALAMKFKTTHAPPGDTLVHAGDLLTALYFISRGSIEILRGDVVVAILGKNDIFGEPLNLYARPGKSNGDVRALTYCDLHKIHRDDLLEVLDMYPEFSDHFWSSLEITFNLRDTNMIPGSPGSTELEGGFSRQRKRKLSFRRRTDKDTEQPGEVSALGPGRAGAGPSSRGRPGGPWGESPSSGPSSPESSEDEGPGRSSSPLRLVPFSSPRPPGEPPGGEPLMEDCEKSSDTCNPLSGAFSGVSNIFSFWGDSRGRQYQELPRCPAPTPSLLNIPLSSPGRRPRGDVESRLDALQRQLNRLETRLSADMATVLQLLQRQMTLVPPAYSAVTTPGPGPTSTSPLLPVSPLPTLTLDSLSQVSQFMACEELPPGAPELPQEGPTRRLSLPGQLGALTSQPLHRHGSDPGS

CP(C)(=O)c1c2ccc3c(c[nH]c13)-c1nc(ncc1C(F)(F)F)N[C@H]1CC[C@@H](C1)NCCOCCNC2=O
bioavailability [1]: 22.8%
Cmax [2]: 89.4 ng/mL
Vd [3]: 12 L/kg
AUC(0-inf) [4]: 163 ng·h/mL
efflux ratio [5]: > 35.8
Papp [6]: < 0.48 ×10⁻⁶ cm/s
Kd [7]: 0.06 nM
IC50 (HCC70 [8]): 29 nM
AUC(0-inf) [9]: 412 ng·h/mL
CLint scaled [10]: < 13.4 mL/min/kg
half-life [11]: 2 h
clearance [12]: 95.9 mL/min/kg

CC1(C)CC[C@H](Nc2ncc(C(F)(F)F)c(-c3c[nH]c4c(P(C)(C)=O)c(C#N)ccc34)n2)CN1 [SY-5609]
half-life [13]: 3.2 h
bioavailability [14]: 89.7%
inhibition at 10 µM (hERG): 37.1%
concentration at 0.5 h [15]: 2500 ng/g
Vdss [16]: 5.9 L/kg
Cmax [17]: 80 ng/mL
AUC(0-t) [18]: 247 ng·h/mL
AUC(0-t) [19]: 406 ng·h/mL
AUC(0-t) [20]: 1460 ng·h/mL
bioavailability [21]: 94.3%
inhibition in vivo at 2 mg/kg (OVCAR-3 [22]): 110%
CLint scaled [23]: 4.3 mL/min/kg
Papp [6]: 2.54 ×10⁻⁶ cm/s
clearance [24]: 67.5 mL/min/kg
concentration at 8 h [25]: 43.1 ng/mL
t1/2 [26]: 0.6 h
concentration at 0.5 h [27]: 13.4 ng/mL
AUC(0-t) [28]: 1110 ng·h/mL
Activity [29]: Non-toxic
Vd [30]: 7.6 L/kg
CLint scaled [31]: 7.2 mL/min/kg
Cmax [32]: 33.5 ng/mL
fraction unbound [33]: 0.065
AUC(0-t) [34]: 138 ng·h/mL
concentration at 2 h [35]: 69.3 ng/mL
AUC(0-t) [36]: 920 ng·h/mL
half-life [37]: 6.6 h
solubility [38]: 172 µg/mL (≈ 351 µM)
Cmax [39]: 123 ng/mL
Cmax [40]: 339 ng/mL
fraction unbound [41]: 0.163
bioavailability [42]: 65.8%
AUC(0-t) [43]: 387 ng·h/mL
Cmax [44]: 76 ng/mL
clearance [45]: 14.5 mL/min/kg
fraction unbound [46]: 0.142
AUC(0-t) [47]: 1920 ng·h/mL
half-life [48]: 6.9 h
concentration at 2 h [49]: 5030 ng/g
IC50 (HCC70 [8]): 72 nM
Vd [50]: 16.9 L/kg
concentration at 8 h [51]: 842 ng/g
half-life [52]: 2.7 h
inhibition in vivo at 1 mg/kg (HCC70 [53]): 48.8%
CLint scaled [10]: < 26.7 mL/min/kg

CN1C[C@@H](F)CCN(C)[C@H]2CC[C@@H](C2)Nc2ncc(C(F)(F)F)c(n2)-c2c[nH]c3c(P(C)(C)=O)c(ccc23)C1=O
Cmax [54]: 170 ng/mL
Vd [3]: 3.6 L/kg
IC50 (OVCAR-3 [55]): 59.1 nM
bioavailability [56]: 24.3%
efflux ratio [5]: 11.2
half-life [57]: 2.4 h
Papp [6]: 1.91 ×10⁻⁶ cm/s
AUC(0-t) [58]: 365 ng·h/mL
Kd [7]: 0.12 nM
IC50 (HCC70 [8]): 66.5 nM
clearance [12]: 55.3 mL/min/kg

CN1CCCCN(C)[C@H]2CC[C@@H](C2)Nc2ncc(C(F)(F)F)c(n2)-c2c[nH]c3c(P(C)(C)=O)c(ccc23)C1=O
Cmax [54]: 105 ng/mL
Vd [3]: 5.6 L/kg
IC50 (OVCAR-3 [55]): 105 nM
bioavailability [56]: 22.7%
efflux ratio [5]: 19.2
half-life [57]: 2.1 h
Papp [6]: 0.72 ×10⁻⁶ cm/s
AUC(0-t) [58]: 302 ng·h/mL
IC50 (HCC70 [8]): 22 nM
clearance [12]: 62.5 mL/min/kg

CN1CCCCO[C@H]2CC[C@@H](C2)Nc2ncc(C(F)(F)F)c(n2)-c2c[nH]c3c(P(C)(C)=O)c(ccc23)C1=O
Cmax [54]: 343 ng/mL
Vd [3]: 1 L/kg
IC50 (OVCAR-3 [55]): 180 nM
bioavailability [56]: 30.9%
efflux ratio [5]: 1.1
half-life [57]: 1 h
Papp [6]: 26 ×10⁻⁶ cm/s
AUC(0-t) [58]: 563 ng·h/mL
Kd [7]: 3.5 nM
IC50 (HCC70 [8]): 243 nM
clearance [12]: 45.8 mL/min/kg

CN1C[C@H](F)CCN(C)[C@H]2CC[C@@H](C2)Nc2ncc(C(F)(F)F)c(n2)-c2c[nH]c3c(P(C)(C)=O)c(ccc23)C1=O
IC50 (OVCAR-3 [55]): 62.6 nM
efflux ratio [5]: 22.3
Papp [6]: 0.9 ×10⁻⁶ cm/s
IC50 (HCC70 [8]): 44 nM
